Data from patent publication US7138361B2, “Herbicidal heterocycles” (E. I. du Pont de Nemours and Company, priority 2000, dated 2006).

Columns and labels:
Format in all cases: in vivo
[1] = test system: Surinam grass (Brachiaria decumbens); assay: Test B postemergence; conditions: 13 to 15 days
In short: (§1)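 Visual injury scores, 0 = no effect to 100 = complete control, assigned against controls after 13 to 15 days in the greenhouse. Compounds formulated in non-phytotoxic solvent plus surfactant and applied to soil after planting (pre) or onto foliage of 1- to 4-leaf plants (post).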

[2] = test system: barnyardgrass (Echinochloa crus-galli); assay: Test B postemergence; conditions: 13 to 15 days
In short: as §1

[3] = test system: blackgrass (Alopecurus myosuroides); assay: Test B postemergence; conditions: 13 to 15 days
In short: as §1

[4] = test system: cocklebur (Xanthium strumarium); assay: Test B postemergence; conditions: 13 to 15 days
In short: as §1

corn (Zea mays) [5] = assay: Test B postemergence; conditions: 13 to 15 days
In short: as §1

[6] = test system: crabgrass (Digitaria sanguinalis); assay: Test B postemergence; conditions: 13 to 15 days
In short: as §1

[7] = test system: giant foxtail (Setaria faberii); assay: Test B postemergence; conditions: 13 to 15 days
In short: as §1

[8] = test system: lambsquarters (Chenopodium album); assay: Test B postemergence; conditions: 13 to 15 days
In short: as §1

[9] = test system: morning glory (Ipomoea hederacea); assay: Test B postemergence; conditions: 13 to 15 days
In short: as §1

[10] = test system: pigweed (Amaranthus retroflexus); assay: Test B postemergence; conditions: 13 to 15 days
In short: as §1

[11] = test system: velvetleaf (Abutilon theophrasti); assay: Test B postemergence; conditions: 13 to 15 days
In short: as §1

[12] = test system: wheat (Triticum aestivum); assay: Test B postemergence; conditions: 13 to 15 days
In short: as §1

wild oat (Avena fatua) = assay: Test B postemergence; conditions: 13 to 15 days
In short: as §1

[13] = test system: Surinam grass (Brachiaria decumbens); assay: Test B preemergence; conditions: scale 0 to 100, 0 no effect, 100 complete control
In short: as §1

[14] = test system: barnyardgrass (Echinochloa crus-galli); assay: Test B preemergence; conditions: scale 0 to 100, 0 no effect, 100 complete control
In short: as §1

[15] = test system: cocklebur (Xanthium strumarium); assay: Test B preemergence; conditions: scale 0 to 100, 0 no effect, 100 complete control
In short: as §1

corn (Zea mays) [16] = assay: Test B preemergence; conditions: scale 0 to 100, 0 no effect, 100 complete control
In short: as §1

[17] = test system: crabgrass (Digitaria sanguinalis); assay: Test B preemergence; conditions: scale 0 to 100, 0 no effect, 100 complete control
In short: as §1

[18] = test system: giant foxtail (Setaria faberii); assay: Test B preemergence; conditions: scale 0 to 100, 0 no effect, 100 complete control
In short: as §1

[19] = test system: lambsquarters (Chenopodium album); assay: Test B preemergence; conditions: scale 0 to 100, 0 no effect, 100 complete control
In short: as §1

[20] = test system: morning glory (Ipomoea hederacea); assay: Test B preemergence; conditions: scale 0 to 100, 0 no effect, 100 complete control
In short: as §1

[21] = test system: pigweed (Amaranthus retroflexus); assay: Test B preemergence; conditions: scale 0 to 100, 0 no effect, 100 complete control
In short: as §1

rice (Oryza saliva) = assay: Test B preemergence; conditions: scale 0 to 100, 0 no effect, 100 complete control
In short: as §1

[22] = test system: velvetleaf (Abutilon theophrasti); assay: Test B preemergence; conditions: scale 0 to 100, 0 no effect, 100 complete control
In short: as §1

[23] = test system: smallflower flatsedge (Cyperus difformis); assay: Test C flooded paddy test; conditions: for Flatsedge plant response rating: Flooded Paddy, scale 0 to 100, 0 no effect, 100 complete control; for Plant response rating, Flatsedge / Plant response rating (scale 0 to 100), Flatsedge: flooded paddy test; for Plant response rating, Flatsedge: scale 0 to 100 (0 no effect, 100 complete control)
In short: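 Visual ratings (0 = no effect, 100 = complete control) were made 12–14 days after treatment, relative to greenhouse controls. Plants in the flooded paddy test were rice, smallflower flatsedge, duck salad and barnyardgrass, treated at the 2-leaf stage.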

[24] = Rate 125 g/ha, scale 0 (no effect) to 100 (complete control)
[25] = Rate 500 g/ha, scale 0 to 100, 0 is no effect, 100 is complete control

SMILES: CCC(C)c1ccn(C2OCN(c3cccc(C(F)(F)F)c3)C2=O)n1 (stereo not drawn) [Compound 24]
- Plant response rating, Surinam grass [1, 24]: 0
- Plant response rating, Surinam grass [1, 25]: 50
- Plant response rating, Barnyardgrass [2, 24]: 70
- Plant response rating, Barnyardgrass [2, 25]: 100
- Plant response rating, Blackgrass [3, 24]: 0
- Plant response rating, Blackgrass [3, 25]: 0
- Plant response rating, Cocklebur [4, 24]: 20
- Plant response rating, Cocklebur [4, 25]: 40
- Plant response rating, Corn (corn (Zea mays) [5]; [24]): 0
- Plant response rating, Corn (corn (Zea mays) [5]; [25]): 50
- Plant response rating, Crabgrass [6, 24]: 60
- Plant response rating, Crabgrass [6, 25]: 90
- Plant response rating, Foxtail, Giant [7, 24]: 20
- Plant response rating, Foxtail, Giant [7, 25]: 80
- Plant response rating, Lambsquarters [8, 24]: 90
- Plant response rating, Lambsquarters [8, 25]: 100
- Plant response rating, Morningglory [9, 24]: 0
- Plant response rating, Morningglory [9, 25]: 40
- Plant response rating, Pigweed [10, 24]: 80
- Plant response rating, Pigweed [10, 25]: 100
- Plant response rating, Velvetleaf [11, 24]: 0
- Plant response rating, Velvetleaf [11, 25]: 0
- Plant response rating, Wheat [12, 24]: 0
- Plant response rating, Wheat [12, 25]: 0
- Plant response rating, Wild Oat (wild oat (Avena fatua); [24]): 0
- Plant response rating, Wild Oat (wild oat (Avena fatua); [25]): 0
- Plant response rating, Surinam grass ([13]; Preemergence, Rate 500 g/ha): 80
- Plant response rating, Surinam grass ([13]; preemergence, Rate 125 g/ha): 20
- Plant response rating, Barnyardgrass ([14]; Preemergence, Rate 500 g/ha): 100
- Plant response rating, Barnyardgrass ([14]; preemergence, Rate 125 g/ha): 20
- Plant response rating, Cocklebur ([15]; Preemergence, Rate 500 g/ha): 0
- Plant response rating, Cocklebur ([15]; preemergence, Rate 125 g/ha): 0
- Plant response rating, Corn (corn (Zea mays) [16]; Preemergence, Rate 500 g/ha): 20
- Plant response rating, Corn (corn (Zea mays) [16]; preemergence, Rate 125 g/ha): 0
- Plant response rating, Crabgrass ([17]; Preemergence, Rate 500 g/ha): 100
- Plant response rating, Crabgrass ([17]; preemergence, Rate 125 g/ha): 100
- Plant response rating, Foxtail, Giant ([18]; Preemergence, Rate 500 g/ha): 100
- Plant response rating, Foxtail, Giant ([18]; preemergence, Rate 125 g/ha): 90
- Plant response rating, Lambsquarters ([19]; Preemergence, Rate 500 g/ha): 100
- Plant response rating, Lambsquarters ([19]; preemergence, Rate 125 g/ha): 100
- Plant response rating, Morningglory ([20]; Preemergence, Rate 500 g/ha): 0
- Plant response rating, Morningglory ([20]; preemergence, Rate 125 g/ha): 0
- Plant response rating, Pigweed ([21]; Preemergence, Rate 500 g/ha): 100
- Plant response rating, Pigweed ([21]; preemergence, Rate 125 g/ha): 100
- Plant response rating, Rice (rice (Oryza saliva); Preemergence, Rate 500 g/ha): 0
- Plant response rating, Rice (rice (Oryza saliva); preemergence, Rate 125 g/ha): 0
- Plant response rating, Velvetleaf ([22]; Preemergence, Rate 500 g/ha): 0
- Plant response rating, Velvetleaf ([22]; preemergence, Rate 125 g/ha): 0
- Flatsedge plant response rating ([23]; Rate 250 g/ha): 100
- Flatsedge plant response rating ([23]; Rate 500 g/ha): 100
- Plant response rating, Flatsedge ([23]; Rate 62 g/ha): 100
- Plant response rating, Flatsedge ([23]; Rate 125 g/ha): 100
- Plant response rating (scale 0 to 100), Flatsedge ([23]; Rate 16 g/ha, visually evaluated after 12 to 14 days, 0 = no effect, 100 = complete control): 100
- Plant response rating (scale 0 to 100), Flatsedge ([23]; under head Rate 16 g/ha, (own rate not given), after 12 to 14 days): 100
